Measured values as given in patent US10457709B2, “Antimicrobial peptides, their variants and uses” (priority 2015, dated 2019).
Square brackets hold non-standard residues; d marks the D form. Peptide text beside a SMILES is read from it.

What was measured:
[1] = test system: Acinetobacter baumannii clinical strains; format: cell-based; conditions: clinical strains
Description: (§1) Minimum inhibition concentrations (MICs) were determined against Escherichia coli (ATCC 25922), Staphylococcus aureus (ATCC 25923), Klebsiella pneumoniae (ATCC 10031) and Pseudomonas aeruginosa (ATCC 27853). Also clinical strains of E. coli, K. pneumoniae, E. cloacae, P. aeruginosa, Serratia marcescens, Proteus mirabilis, S. pneumoniae, Acinetobacter baumannii, A. johnsonii and S. aureus were used for MICs assays. Additionally, clinical strains of yeast including Candida albicans, C. glabrata, C. parapsilosis and C. quillermondiae were used. The susceptibility of these microorganisms to Chain peptides were determined using micro broth dilution assay. Colonies of the respective microorganism from Muller Hinton (MH) agar plates incubated overnight were suspended in MH broth media and final concentration of microorganism was adjusted to 5.0×10^5 cfu/ml. An aliquot of 10 μl of each Chain peptide, or gentamicin, tetracycline as reference antibiotics were added in differing concentrations along with 90 μl of bacterial suspension to 96 well polypropylene plates and incubated at 37° C. for 20 to 24 hours. Concentrations of Chain peptides and reference antibiotics ranged from 0.125 to 128 μg/ml and the MICs were recorded as the lowest concentration with no visual growth of bacteria. Similarly, antifungal MICs were tested in Potato dextrose broth.
(§2) Clinical strains of yeasts including Candida albicans, C. glabrata, C. parapsilosis and C. quillermondiae were also tested with the 12 Chain peptides. The minimum inhibitory concentration (MICs) varied between these peptides and are presented in Tables 4a, 4b, 4c and 5a, 5b, 5c. Peptides Chain 105, 201 and 308 are broad spectrum antimicrobials with MICs between 0.5-32 μg/ml against all the bacteria and yeasts tested, except Serratia marcescens and Proteus mirabilis, against which the MICs were between 64-128 μg/ml. Peptide Chain 306 has narrow spectrum activity against E. coli at 1 μg/ml and for the rest of the bacterial strains at >32 μg/ml (FIG. 10c).

[2] = test system: Enterobacter cloacae clinical strains; format: cell-based; conditions: clinical strains
Description: as §1, §2

[3] = test system: Proteus mirabilis clinical strains; format: cell-based; conditions: clinical strains
Description: as §1, §2

[4] = test system: Serratia marcescens clinical strains; format: cell-based; conditions: clinical strains
Description: as §1, §2

[5] = test system: Staphylococcus aureus clinical strains; format: cell-based; conditions: clinical strains
Description: as §1, §2

[6] = test system: Streptococcus pneumoniae clinical strains; format: cell-based; conditions: clinical strains
Description: as §1, §2

[7] = test system: Candida albicans clinical strains; experiment: MIC, clinical yeast strains; format: cell-based; design: unit: μg/ml
Description: as §1, §2

[8] = test system: C. glabrata clinical strains; experiment: MIC, clinical yeast strains; format: cell-based, Candida glabrata; design: unit: µg/ml
Description: as §1, §2

[9] = test system: C. parapsilosis clinical strains; experiment: MIC, clinical yeast strains; format: cell-based, Candida parapsilosis; design: unit: µg/ml
Description: as §1, §2

[10] = test system: C. quillermondiae clinical strains; experiment: MIC, clinical yeast strains; format: cell-based, Candida quillermondiae; design: unit: μg/ml; conditions: C. quillermondiae clinical yeast strain 1
Description: as §1, §2

[11] = test system: Acinetobacter johnsonii clinical strains; format: cell-based; conditions: clinical strain 1; D-form peptides; MH broth-cation adjusted, 0.02% BSA, 0.2% acetic acid
Description: as §1, §2

[12] = test system: Escherichia coli clinical strains; format: cell-based; conditions: clinical strains
Description: as §1, §2

[13] = test system: Klebsiella pneumoniae clinical strains; format: cell-based; conditions: clinical strains
Description: as §1, §2

[14] = test system: Pseudomonas aeruginosa clinical strains; format: cell-based; conditions: clinical strains
Description: as §1, §2

[15] = test system: all the bacteria and yeasts tested; format: cell-based
Description: as §1, §2

[16] = Candida albicans clinical yeast strain 1
[17] = Candida albicans clinical yeast strain 2
[18] = Candida albicans clinical yeast strain 3
[19] = Candida albicans clinical yeast strain 4
[20] = Candida albicans clinical yeast strain 5
[21] = C. glabrata clinical yeast strain 1
[22] = C. glabrata clinical yeast strain 2
[23] = C. glabrata clinical yeast strain 3
[24] = C. glabrata clinical yeast strain 4
[25] = C. parapsilosis clinical yeast strain 1
[26] = C. parapsilosis clinical yeast strain 2
[27] = C. parapsilosis clinical yeast strain 3
[28] = C. parapsilosis clinical yeast strain 4

CC[C@@H](C)[C@@H](NC(=O)[C@@H](CCSC)NC(=O)[C@@H](C)NC(=O)[C@@H](CCCNC(=N)N)NC(=O)[C@@H](Cc1c[nH]c2ccccc12)NC(=O)[C@@H](CCCCN)NC(=O)[C@H](N)CCCNC(=N)N)C(=O)N[C@H](CCCNC(=N)N)C(=O)N[C@H](CC(C)C)C(=O)N[C@H](Cc1c[nH]cn1)C(=O)N[C@H](C)C(=O)N[C@H](CCCCN)C(=O)N[C@H](Cc1c[nH]c2ccccc12)C(=O)N[C@H](CC(C)C)C(=O)N[C@H](CCCNC(=N)N)C(=O)N[C@H](CCCCN)C(=O)O [Chain105D] (H-[dR][dK][dW][dR][dA][dM][dI][dR][dL][dH][dA][dK][dW][dL][dR][dK]-OH)
4: Minimum inhibitory concentration [9, 28]
32 µg/mL: MIC, Proteus mirabilis strain 2 [3]
128 µg/mL: MIC, Serratia marcescens strain 1 [4] | MIC, Serratia marcescens strain 2 [4] | MIC, Serratia marcescens strain 3 [4] | MIC, Serratia marcescens strain 4 [4] | MIC, Serratia marcescens strain 5 [4]
16: Minimum inhibitory concentration [7, 17] | Minimum inhibitory concentration [8, 21] | Minimum inhibitory concentration [8, 22]
1 µg/mL: MIC, Enterobacter cloacae strain 5 [2] | MIC, Escherichia coli strain 1 [12] | MIC, Escherichia coli strain 3 [12] | MIC, Escherichia coli strain 4 [12]
32: Minimum inhibitory concentration [7, 16] | Minimum inhibitory concentration [7, 18] | Minimum inhibitory concentration [7, 19] | Minimum inhibitory concentration [7, 20] | Minimum inhibitory concentration [8, 24]
0.5 to 32 µg/mL: MICs against all the bacteria and yeasts tested [15]
64 to 128 µg/mL: MICs against Proteus mirabilis [3] | MICs against Serratia marcescens [4]
2 µg/mL: MIC, Acinetobacter baumannii strain 4 [1] | MIC, Enterobacter cloacae strain 1 [2] | MIC, Enterobacter cloacae strain 2 [2] | MIC, Enterobacter cloacae strain 3 [2] | MIC, Enterobacter cloacae strain 4 [2] | MIC, Staphylococcus aureus strain 1 [5] | MIC, Staphylococcus aureus strain 2 [5] | MIC, Staphylococcus aureus strain 3 [5] | MIC, Staphylococcus aureus strain 4 [5] | MIC, Staphylococcus aureus strain 5 [5] | MIC, Streptococcus pneumoniae strain 2 [6] | MIC, Streptococcus pneumoniae strain 3 [6] | MIC, Streptococcus pneumoniae strain 5 [6] | MIC, Escherichia coli strain 5 [12] | MIC, Klebsiella pneumoniae strain 2 [13] | MIC, Klebsiella pneumoniae strain 5 [13]
>128 µg/mL: MIC, Proteus mirabilis strain 1 [3] | MIC, Proteus mirabilis strain 4 [3] | MIC, Proteus mirabilis strain 5 [3]
8: Minimum inhibitory concentration [8, 23] | Minimum inhibitory concentration [9, 25] | Minimum inhibitory concentration [9, 26] | Minimum inhibitory concentration [9, 27] | Minimum inhibitory concentration [10]
64 µg/mL: MIC, Proteus mirabilis strain 3 [3]
4 µg/mL: MIC, Acinetobacter baumannii strain 1 [1] | MIC, Acinetobacter baumannii strain 2 [1] | MIC, Acinetobacter baumannii strain 3 [1] | MIC, Acinetobacter baumannii strain 5 [1] | MIC, Streptococcus pneumoniae strain 1 [6] | MIC, Streptococcus pneumoniae strain 4 [6] | MIC, Acinetobacter johnsonii strain 1 [11] | MIC, Escherichia coli strain 2 [12] | MIC, Klebsiella pneumoniae strain 1 [13] | MIC, Klebsiella pneumoniae strain 3 [13] | MIC, Klebsiella pneumoniae strain 4 [13] | MIC, Pseudomonas aeruginosa strain 1 [14] | MIC, Pseudomonas aeruginosa strain 2 [14] | MIC, Pseudomonas aeruginosa strain 3 [14] | MIC, Pseudomonas aeruginosa strain 4 [14] | MIC, Pseudomonas aeruginosa strain 5 [14]

CC[C@@H](C)[C@@H](NC(=O)[C@@H](CCSC)NC(=O)[C@@H](C)NC(=O)[C@@H](CCCNC(=N)N)NC(=O)[C@@H](Cc1c[nH]c2ccccc12)NC(=O)[C@@H](CCCCN)NC(=O)[C@H](N)CCCNC(=N)N)C(=O)N[C@H](CCCNC(=N)N)C(=O)N[C@H](CC(C)C)C(=O)N[C@H](Cc1c[nH]cn1)C(=O)N[C@H](C)C(=O)N[C@H](CCCCN)C(=O)N[C@H](CCCNC(=N)N)C(=O)N[C@H](CC(C)C)C(=O)N[C@H](CCCNC(=N)N)C(=O)N[C@H](CCCCN)C(=O)O [Chain104D] (H-[dR][dK][dW][dR][dA][dM][dI][dR][dL][dH][dA][dK][dR][dL][dR][dK]-OH)
8: Minimum inhibitory concentration [7, 16] | Minimum inhibitory concentration [7, 17] | Minimum inhibitory concentration [7, 18] | Minimum inhibitory concentration [7, 19] | Minimum inhibitory concentration [7, 20] | Minimum inhibitory concentration [8, 21] | Minimum inhibitory concentration [8, 22] | Minimum inhibitory concentration [8, 23]
1 µg/mL: MIC, Streptococcus pneumoniae strain 3 [6] | MIC, Streptococcus pneumoniae strain 5 [6] | MIC, Pseudomonas aeruginosa strain 5 [14]
4 µg/mL: MIC, Acinetobacter baumannii strain 4 [1] | MIC, Enterobacter cloacae strain 1 [2] | MIC, Enterobacter cloacae strain 2 [2] | MIC, Enterobacter cloacae strain 4 [2] | MIC, Staphylococcus aureus strain 1 [5] | MIC, Staphylococcus aureus strain 3 [5] | MIC, Staphylococcus aureus strain 5 [5] | MIC, Streptococcus pneumoniae strain 1 [6] | MIC, Streptococcus pneumoniae strain 4 [6] | MIC, Escherichia coli strain 1 [12] | MIC, Escherichia coli strain 2 [12] | MIC, Escherichia coli strain 3 [12] | MIC, Escherichia coli strain 4 [12] | MIC, Escherichia coli strain 5 [12] | MIC, Klebsiella pneumoniae strain 2 [13] | MIC, Klebsiella pneumoniae strain 5 [13] | MIC, Pseudomonas aeruginosa strain 1 [14] | MIC, Pseudomonas aeruginosa strain 3 [14]
8 µg/mL: MIC, Acinetobacter baumannii strain 2 [1] | MIC, Acinetobacter baumannii strain 3 [1] | MIC, Acinetobacter baumannii strain 5 [1] | MIC, Enterobacter cloacae strain 3 [2] | MIC, Acinetobacter johnsonii strain 1 [11] | MIC, Klebsiella pneumoniae strain 1 [13] | MIC, Klebsiella pneumoniae strain 3 [13]
16: Minimum inhibitory concentration [8, 24]
16 µg/mL: MIC, Acinetobacter baumannii strain 1 [1] | MIC, Klebsiella pneumoniae strain 4 [13]
4: Minimum inhibitory concentration [9, 25] | Minimum inhibitory concentration [9, 26] | Minimum inhibitory concentration [9, 27] | Minimum inhibitory concentration [10]
>128 µg/mL: MIC, Proteus mirabilis strain 1 [3] | MIC, Proteus mirabilis strain 4 [3] | MIC, Proteus mirabilis strain 5 [3] | MIC, Serratia marcescens strain 1 [4] | MIC, Serratia marcescens strain 2 [4] | MIC, Serratia marcescens strain 3 [4] | MIC, Serratia marcescens strain 4 [4]
2: Minimum inhibitory concentration [9, 28]
128 µg/mL: MIC, Proteus mirabilis strain 3 [3] | MIC, Serratia marcescens strain 5 [4]
32 µg/mL: MIC, Proteus mirabilis strain 2 [3]
2 µg/mL: MIC, Enterobacter cloacae strain 5 [2] | MIC, Staphylococcus aureus strain 2 [5] | MIC, Staphylococcus aureus strain 4 [5] | MIC, Streptococcus pneumoniae strain 2 [6] | MIC, Pseudomonas aeruginosa strain 2 [14] | MIC, Pseudomonas aeruginosa strain 4 [14]
